Measurements taken from the supplement of paper PMC11061612.

Experiments:
Test in all cases: combination Emax (second highest fraction inhibited in the dose matrix, 72 h); higher = more inhibition; extreme values may be limits of the assay
[1] = tested on: Hs-633T (Other Solid Carcinomas)
How it was run: (§1)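 Bliss excess equals the observed combination effect minus the expected value EA + EB − EA·EB, where EA and EB are the effects of each agent alone. Combination Emax is the second-highest inhibition within the matrix. Inhibition was scaled from CellTiter-Glo 2.0 luminescence, with 0 set by vehicle wells and 1 by blank wells, after 72 hours of two-drug dosing of cells plated in 1536-well plates.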

[2] = tested on: SW1271 (Small Cell Lung Carcinoma)
How it was run: as §1

[3] = tested on: OC-314 (Ovarian Carcinoma)
How it was run: as §1

[4] = tested on: EN (Endometrial Carcinoma)
How it was run: as §1

[5] = tested on: CAPAN-1 (Pancreatic Carcinoma)
How it was run: as §1

[6] = tested on: CAL-51 (Breast Carcinoma)
How it was run: as §1

SH-4 (Melanoma) = tested on: SH-4 (Melanoma)
How it was run: as §1

[7] = tested on: LoVo (Colorectal Carcinoma)
How it was run: as §1

Mewo (Melanoma) = tested on: Mewo (Melanoma)
How it was run: as §1

[8] = tested on: SU-DHL-6 (B-Cell Non-Hodgkin's Lymphoma)
How it was run: as §1

[9] = tested on: LB771-HNC (Head and Neck Carcinoma)
How it was run: as §1

[10] = tested on: MHH-PREB-1 (B-Cell Non-Hodgkin's Lymphoma)
How it was run: as §1

[11] = tested on: 639-V (Bladder Carcinoma)
How it was run: as §1

[12] = tested on: MDA-MB-468 (Breast Carcinoma)
How it was run: as §1

[13] = tested on: SW1116 (Colorectal Carcinoma)
How it was run: as §1

[14] = tested on: HO-1-u-1 (Oral Cavity Carcinoma)
How it was run: as §1

[15] = tested on: HARA (Squamous Cell Lung Carcinoma)
How it was run: as §1

COLO-829 (Melanoma) = tested on: COLO-829 (Melanoma)
How it was run: as §1

HMV-II (Melanoma) = tested on: HMV-II (Melanoma)
How it was run: as §1

[16] = tested on: KARPAS-231 (B-Cell Non-Hodgkin's Lymphoma)
How it was run: as §1

| Compound | combination Emax [1] | combination Emax [2] | combination Emax [3] | combination Emax [4] | combination Emax [5] | combination Emax [6] | combination Emax (SH-4 (Melanoma)) | combination Emax [7] | combination Emax (Mewo (Melanoma)) | combination Emax [8] | combination Emax [9] | combination Emax [10] | combination Emax [11] | combination Emax [12] | combination Emax [13] | combination Emax [14] | combination Emax [15] | combination Emax (COLO-829 (Melanoma)) | combination Emax (HMV-II (Melanoma)) | combination Emax [16] |
| --- | --- | --- | --- | --- | --- | --- | --- | --- | --- | --- | --- | --- | --- | --- | --- | --- | --- | --- | --- | --- |
| C=CCn1c(=O)c2cnc(Nc3ccc(N4CCN(C)CC4)cc3)nc2n1-c1cccc(C(C)(C)O)n1 [AZD1775] + C[C@@H]1COCCN1C2=NC(=NC(=C2)C3(CC3)[S@](=N)(=O)C)C4=C5C=CNC5=NC=C4 [AZD6738] (first compound max 1 µM, partner max 10 µM) | 0.937 | 0.637 | 0.941 | 0.764 | 0.49 | 0.936 | 0.56 | 0.875 | 0.71 | 0.922 | 0.536 | 0.948 | 0.457 | 0.634 | 0.506 | 0.973 | 0.906 | 0.129 | 0.495 | 0.98 |
| C=CCn1c(=O)c2cnc(Nc3ccc(N4CCN(C)CC4)cc3)nc2n1-c1cccc(C(C)(C)O)n1 [AZD1775] + O=C(c1cc(Cc2n[nH]c(=O)c3ccccc23)ccc1F)N1CCN(C(=O)C2CC2)CC1 [Olaparib] (first compound max 1 µM, partner max 10 µM) | 0.657 | 0.619 | 0.631 | 0.531 | 0.516 | 0.811 | 0.492 | 0.781 | 0.382 | 0.85 | 0.533 | 0.76 | 0.333 | 0.484 | 0.343 | 0.644 | 0.743 | 0.174 | 0.401 | 0.972 |
| CCN(CCO)CCCOc1ccc2c(Nc3cc(CC(=O)Nc4cccc(F)c4)[nH]n3)ncnc2c1 [AZD2811] + C=CCn1c(=O)c2cnc(Nc3ccc(N4CCN(C)CC4)cc3)nc2n1-c1cccc(C(C)(C)O)n1 [AZD1775] (first compound max 1 µM, partner max 1 µM) | 0.649 | 0.586 | 0.839 | 0.558 | 0.416 | 0.815 | 0.456 | 0.835 | 0.402 | 0.734 | 0.359 | 0.718 | 0.265 | 0.434 | 0.208 | 0.54 | 0.788 | 0.274 | 0.473 | 0.993 |
| CCN(CCO)CCCOc1ccc2c(Nc3cc(CC(=O)Nc4cccc(F)c4)[nH]n3)ncnc2c1 [AZD2811] + C[C@@H]1COCCN1C2=NC(=NC(=C2)C3(CC3)[S@](=N)(=O)C)C4=C5C=CNC5=NC=C4 [AZD6738] (first compound max 1 µM, 7x7, partner max 10 µM) | 0.885 | 0.595 | 0.869 | 0.609 | 0.442 | 0.922 | 0.31 | 0.83 | 0.49 | 0.446 | 0.46 | 0.797 | 0.339 | 0.563 | 0.295 | 0.852 | 0.816 | 0.219 | 0.313 | 0.825 |
| CCN(CCO)CCCOc1ccc2c(Nc3cc(CC(=O)Nc4cccc(F)c4)[nH]n3)ncnc2c1 [AZD2811] + O=C(c1cc(Cc2n[nH]c(=O)c3ccccc23)ccc1F)N1CCN(C(=O)C2CC2)CC1 [Olaparib] (first compound max 1 µM, 7x7, partner max 10 µM) | 0.441 | 0.17 | 0.487 | 0.434 | 0.338 | 0.314 | 0.265 | 0.354 | 0.226 | 0.365 | 0.201 | 0.125 | 0.237 | 0.413 | 0.223 | 0.274 | 0.318 | 0.254 | 0.203 | 0.576 |
| CN(CCO)CC[C@H](CSc1ccccc1)Nc1ccc(S(=O)(=O)NC(=O)c2ccc(N3CCC([C@@H](O)c4ccccc4-c4ccc(Cl)cc4)CC3)cc2)cc1S(=O)(=O)C(F)(F)F [AZD4320] + C1CN(CCC1(C(=O)N[C@@H](CCO)C2=CC=C(C=C2)Cl)N)C3=NC=NC4=C3C=CN4 [Capivasertib] (first compound max 1 µM, 7x7, partner max 3 µM) | 0.298 | 0.158 | 0.261 | 0.576 | 0.161 | 0.504 | 0.129 | 0.633 | 0.204 | 1 | 0.259 | 0.173 | 0.154 | 0.821 | 0.139 | 0.744 | 0.298 | 0.118 | 0.169 | 1 |
| CN(CCO)CC[C@H](CSc1ccccc1)Nc1ccc(S(=O)(=O)NC(=O)c2ccc(N3CCC([C@@H](O)c4ccccc4-c4ccc(Cl)cc4)CC3)cc2)cc1S(=O)(=O)C(F)(F)F [AZD4320] + CCN(CCO)CCCOc1ccc2c(Nc3cc(CC(=O)Nc4cccc(F)c4)[nH]n3)ncnc2c1 [AZD2811] (first compound max 1 µM, 7x7, partner max 1 µM) | 0.54 | 0.234 | 0.804 | 0.381 | 0.336 | 0.615 | 0.181 | 0.317 | 0.303 | 0.958 | 0.191 | 0.2 | 0.303 | 0.885 | 0.144 | 0.824 | 0.63 | 0.196 | 0.18 | 1 |
| CN(CCO)CC[C@H](CSc1ccccc1)Nc1ccc(S(=O)(=O)NC(=O)c2ccc(N3CCC([C@@H](O)c4ccccc4-c4ccc(Cl)cc4)CC3)cc2)cc1S(=O)(=O)C(F)(F)F [AZD4320] + CN(C)CCCOc1ccc(-c2ccc3ncc4c(c3c2)n(C2CCOCC2)c(=O)n4C)cn1 [AZD0156] (first compound max 1 µM, 7x7, partner max 1 µM) | 0.163 | 0.127 | 0.165 | 0.218 | 0.145 | 0.16 | 0.16 | 0.287 | 0.147 | 0.986 | 0.0751 | 0.205 | 0.19 | 0.656 | 0.191 | 0.259 | 0.187 | 0.0619 | 0.157 | 0.997 |
| CN(CCO)CC[C@H](CSc1ccccc1)Nc1ccc(S(=O)(=O)NC(=O)c2ccc(N3CCC([C@@H](O)c4ccccc4-c4ccc(Cl)cc4)CC3)cc2)cc1S(=O)(=O)C(F)(F)F [AZD4320] + C[C@@H]1COCCN1C2=NC(=NC(=C2)C3(CC3)[S@](=N)(=O)C)C4=C5C=CNC5=NC=C4 [AZD6738] (first compound max 1 µM, 7x7, partner max 10 µM) | 0.946 | 0.733 | 0.909 | 0.69 | 0.724 | 0.919 | 0.409 | 0.838 | 0.647 | 0.951 | 0.6 | 0.754 | 0.665 | 0.842 | 0.375 | 0.926 | 0.884 | 0.213 | 0.331 | 1 |
| CN(CCO)CC[C@H](CSc1ccccc1)Nc1ccc(S(=O)(=O)NC(=O)c2ccc(N3CCC([C@@H](O)c4ccccc4-c4ccc(Cl)cc4)CC3)cc2)cc1S(=O)(=O)C(F)(F)F [AZD4320] + Cc1cc2ncnn2cc1Nc1ncc2c(n1)n(C1CCOCC1)c(=O)n2C [AZD7648] (first compound max 1 µM, 7x7, partner max 10 µM) | 0.614 | 0.216 | 0.22 | 0.304 | 0.161 | 0.193 | 0.16 | 0.565 | 0.194 | 0.97 | 0.138 | 0.119 | 0.208 | 0.747 | 0.117 | 0.325 | 0.244 | 0.0921 | 0.18 | 1 |
| CN(CCO)CC[C@H](CSc1ccccc1)Nc1ccc(S(=O)(=O)NC(=O)c2ccc(N3CCC([C@@H](O)c4ccccc4-c4ccc(Cl)cc4)CC3)cc2)cc1S(=O)(=O)C(F)(F)F [AZD4320] + Cn1cnc2c(F)c(Nc3ccc(Br)cc3Cl)c(C(=O)NOCCO)cc21 [Selumetinib] (first compound max 1 µM, 7x7, partner max 3 µM) | 0.5 | 0.534 | 0.351 | 0.29 | 0.802 | 0.487 | 0.955 | 0.516 | 0.528 | 0.974 | 0.255 | 0.164 | 0.978 | 0.789 | 0.599 | 0.465 | 0.219 | 0.601 | 0.826 | 0.977 |
| Cc1c2c(nn1C)CSCc1cc(n(C)n1)CSc1cc(c3ccccc3c1)OCCCc1c(C(=O)O)n(C)c3c-2c(Cl)ccc13 [AZD5991] + C1CN(CCC1(C(=O)N[C@@H](CCO)C2=CC=C(C=C2)Cl)N)C3=NC=NC4=C3C=CN4 [Capivasertib] (first compound max 1 µM, 7x7, partner max 3 µM) | 0.216 | 0.216 | 0.297 | 0.848 | 0.203 | 0.792 | 0.332 | 0.625 | 0.199 | 1 | 0.587 | 0.101 | 0.177 | 0.585 | 0.102 | 0.837 | 0.58 | 0.222 | 0.198 | 1 |
